# Results from article PMC4938718 (Structure (London, England : 1993), 2016).
# What was measured:
# [1] = biological target: T1, HisH subunit of imidazole glycerol phosphate synthase (IGPS) (Thermotoga maritima, UniProt Q9X0C8); assay: covalent labeling, loss of free Cys thiol confirmed by DTNB assay; format: binding
# T1 sequence (Q9X0C8 1-201): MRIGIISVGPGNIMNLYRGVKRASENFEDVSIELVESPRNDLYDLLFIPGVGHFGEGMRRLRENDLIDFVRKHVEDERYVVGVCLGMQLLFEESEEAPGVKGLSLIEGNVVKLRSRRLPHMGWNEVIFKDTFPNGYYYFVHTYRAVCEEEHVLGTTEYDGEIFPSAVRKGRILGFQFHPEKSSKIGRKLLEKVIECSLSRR
# T1 sequence (Q9X0C6 1-253 partner): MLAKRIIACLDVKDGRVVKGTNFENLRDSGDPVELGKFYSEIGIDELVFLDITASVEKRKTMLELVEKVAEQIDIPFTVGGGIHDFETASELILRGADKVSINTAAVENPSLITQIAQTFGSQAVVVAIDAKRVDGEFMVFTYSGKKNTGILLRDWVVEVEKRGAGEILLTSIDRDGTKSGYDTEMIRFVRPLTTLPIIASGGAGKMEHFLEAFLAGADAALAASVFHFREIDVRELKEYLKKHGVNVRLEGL
# [2] = biological target: T2, HisF subunit of imidazole glycerol phosphate synthase (IGPS) (Thermotoga maritima, UniProt Q9X0C6); assay: NMR lineshape analysis of titration; format: binding
# T2 sequence (Q9X0C6 1-253): T1 sequence (Q9X0C6 1-253 partner)
# T2 sequence (Q9X0C8 1-201 partner): T1 sequence (Q9X0C8 1-201)
Compound,"covalent labeling, loss of free Cys thiol confirmed by DTNB assay [1]",Kd [2] [µM]
N[C@H](C(=O)O)[C@@H]1CC(Cl)=NO1 [acivicin],Covalent modification of IGPS with the non-hydrolyzable Gln analogue acivicin was achieved by incubating IGPS with two molar equivalents,–
NC(=O)c1ncn([C@@H]2O[C@H](COP(=O)(O)O)[C@@H](O)[C@H]2O)c1N [AICAR],–,1500 ± 200
